Measured values taken from patent US6368788B1 (priority 1987, dated 2002).
Read-outs that look alike come from different tables or passages of the source. Marks after values point to notes of the source that are not given here.

How the values were obtained:
Pseudomonas aeruginosa = assay: Survival after acute peritonitis with LD100 dose of Pseudomonas aeruginosa; type: in vivo, mice
[1] = Following Stage 2, Papular-pustular acne

Substance: L-Glu-L-Trp
- Number of Patients with Clinical Result: Recovered (Staphylococci; Following Stage 2, Chronic relapsing folliculitis gravis): 1
- Number of Patients with Clinical Result: Recovered (Staphylococci; Following Stage 2, Chronic relapsing osteofolliculitis): 3
- Number of Patients with Clinical Result: Significantly Improved (Staphylococci; Following Stage 2, Chronic ulcerative pyoderma): 2
- Number of Patients with Clinical Result: Recovered (Staphylococci; [1]): 4
- Number of Patients with Clinical Result: Significantly Improved (Staphylococci; [1]): 3
- Number of Patients with Clinical Result: Improved (Staphylococci; Following Stage 2, Totals): 1
- Number of Patients with Clinical Result: No Effect (Staphylococci; Following Stage 2, Totals): 0
- Number of Patients with Clinical Result: Recovered (Staphylococci; Following Stage 2, Totals): 27
- Number of Patients with Clinical Result: Significantly Improved (Staphylococci; Following Stage 2, Totals): 8
- Number of Patients with Clinical Result: Worse (Staphylococci; Following Stage 2, Totals): 0
- B-Lymphocytes (Staphylococci; L-Glu-L-Trp Treatment (n = 36)): 0.28 ± 0.04 ×10^9/L
- B-Lymphocytes % Normal Value (Staphylococci; L-Glu-L-Trp Treatment (n = 36)): (57%)
- B-Lymphocytes (%) (Staphylococci; L-Glu-L-Trp Treatment (n = 36)): 12.1 ± 1.5%
- C3 (Staphylococci; L-Glu-L-Trp Treatment (n = 36)): 0.77 ± 0.02 g/L
- C3, % Normal Value (Staphylococci; L-Glu-L-Trp Treatment (n = 36)): (92%)
- Erythrocyte Sed. Rate (Staphylococci; L-Glu-L-Trp Treatment (n = 36)): 1.2 ± 1.4 mm
- IgA (Staphylococci; L-Glu-L-Trp Treatment (n = 36)): 2.40 ± 0.18 g/L
- IgA % Normal Value (Staphylococci; L-Glu-L-Trp Treatment (n = 36)): (126%)
- IgG (Staphylococci; L-Glu-L-Trp Treatment (n = 36)): 15.5 ± 0.73 g/L
- IgG % Normal Value (Staphylococci; L-Glu-L-Trp Treatment (n = 36)): (135%)
- IgM (Staphylococci; L-Glu-L-Trp Treatment (n = 36)): 1.25 ± 0.12 g/L
- IgM % Normal Value (Staphylococci; L-Glu-L-Trp Treatment (n = 36)): (109%)
- Imm. Cmplx. (Staphylococci; L-Glu-L-Trp Treatment (n = 36)): 45.9 ± 4.9 Units
- Leukocytes (Staphylococci; L-Glu-L-Trp Treatment (n = 36)): 7.75 ± 0.33 ×10^9/L
- Leukocytes % Normal Value (Staphylococci; L-Glu-L-Trp Treatment (n = 36)): (115%)
- Lymphocytes (Staphylococci; L-Glu-L-Trp Treatment (n = 36)): 2.41 ± 0.14 ×10^9/L
- Lymphocytes % Normal Value (Staphylococci; L-Glu-L-Trp Treatment (n = 36)): (120%)
- Lymphocytes, % (Staphylococci; L-Glu-L-Trp Treatment (n = 36)): 30.8 ± 1.4%
- Monocytes (Staphylococci; L-Glu-L-Trp Treatment (n = 36)): 0.43 ± 0.04 ×10^9/L
- Monocytes, % (Staphylococci; L-Glu-L-Trp Treatment (n = 36)): 5.65 ± 0.40%
- Monocytes, % Normal Value (Staphylococci; L-Glu-L-Trp Treatment (n = 36)): (78%)
- NK activity (Staphylococci; L-Glu-L-Trp Treatment (n = 36)): 45.18 ± 2.55 % cytotox.
- Neutrophils (Staphylococci; L-Glu-L-Trp Treatment (n = 36)): 4.54 ± 0.25 10^9/L
- Neutrophils, % (Staphylococci; L-Glu-L-Trp Treatment (n = 36)): 59.8 ± 1.5%
- Neutrophils, % Normal Value (Staphylococci; L-Glu-L-Trp Treatment (n = 36)): (103%)
- Phag. Index (Staphylococci; L-Glu-L-Trp Treatment (n = 36)): 5.31 ± 0.20
- Phagocytic Cells (Staphylococci; L-Glu-L-Trp Treatment (n = 36)): 2.36 ± 0.27 ×10^9/L
- Phagocytic Cells, % Normal Value (Staphylococci; L-Glu-L-Trp Treatment (n = 36)): (89%)
- Surface Ig + B-Lym (Staphylococci; L-Glu-L-Trp Treatment (n = 36)): 0.34 ± 0.05 ×10^9/L
- Surface Ig + B-Lym, % (Staphylococci; L-Glu-L-Trp Treatment (n = 36)): 16.9 ± 1.7%
- Surface Ig + B-Lym, % Normal Value (Staphylococci; L-Glu-L-Trp Treatment (n = 36)): (117%)
- T4^+/T8^+ Ratio (Staphylococci; L-Glu-L-Trp Treatment (n = 36)): 1.32 ± 0.11
- T-Lymphocytes (Staphylococci; L-Glu-L-Trp Treatment (n = 36)): 1.68 ± 0.12 ×10^9/L
- T-Lymphocytes % Normal Value (Staphylococci; L-Glu-L-Trp Treatment (n = 36)): (99%)
- T-Lymphocytes (%) (Staphylococci; L-Glu-L-Trp Treatment (n = 36)): 69.3 ± 1.9 %
- T-helper % Normal Value (Staphylococci; L-Glu-L-Trp Treatment (n = 36)): (71%)
- T-helper (OKT4+) (Staphylococci; L-Glu-L-Trp Treatment (n = 36)): 0.46 ± 0.05 ×10^9/L
- T-helper (OKT4+) % (Staphylococci; L-Glu-L-Trp Treatment (n = 36)): 20.3 ± 2.9%
- T-suppressor % Normal Value (Staphylococci; L-Glu-L-Trp Treatment (n = 36)): (95%)
- T-suppressor (OKT8+) (Staphylococci; L-Glu-L-Trp Treatment (n = 36)): 0.39 ± 0.04 ×10^9/L
- T-suppressor (OKT8+) % (Staphylococci; L-Glu-L-Trp Treatment (n = 36)): 17.1 ± 1.9%
- T-lymphocytes, T4+ lymphocytes, T4+/T8+ ratio and NK activity relative to normal healthy volunteers (Staphylococci; after treatment): > 70%
- Patients with considerable (significant) improvement (Staphylococci; combination therapy): 8
- Patients with improvement (Staphylococci; combination therapy): 1
- Patients with clinical (complete) recovery (Staphylococci; combination therapy, 36 patients): 27
- Surface IgG+ lymphocytes (Staphylococci; following Stage 2): 0.19±0.023 ×10^9/L
- Patients with clinically manifested increased antibiotic sensitivity in vivo (Staphylococci; in vivo): 55-75%
- Clinical recovery, papulous pustular acne (Staphylococci; of 7 patients): 4
- Complete clinical recovery, chronic abscessing pyoderma (Staphylococci; of 7 patients): 5
- Clinical recovery, abscessing and indurative acne (Staphylococci; of 10 patients): 6
- Percentage Survivors (Pseudomonas aeruginosa; 24 hours after injection, Glu-Trp dose 10 μg/kg (alone or + Gentamycin 1 MED)): 55.6* %
- Percentage Survivors (Pseudomonas aeruginosa; 24 hours after injection, Glu-Trp dose 100 μg/kg (alone or + Gentamycin 1 MED)): 66.7*† %
- Percentage Survivors (Pseudomonas aeruginosa; 24 hours after injection, Glu-Trp dose 1000 μg/kg (alone or + Gentamycin 1 MED)): 77.8*† %
- Percentage Survivors (Pseudomonas aeruginosa; 48 hours after injection, Glu-Trp dose 10 μg/kg (alone or + Gentamycin 1 MED)): 5.6%
- Percentage Survivors (Pseudomonas aeruginosa; 48 hours after injection, Glu-Trp dose 100 μg/kg (alone or + Gentamycin 1 MED)): 38.9* %
- Percentage Survivors (Pseudomonas aeruginosa; 48 hours after injection, Glu-Trp dose 1000 μg/kg (alone or + Gentamycin 1 MED)): 44.4* %
- Percentage Survivors (Pseudomonas aeruginosa; 96 hours after injection, Glu-Trp dose 10 μg/kg (alone or + Gentamycin 1 MED)): 5.6%
- Percentage Survivors (Pseudomonas aeruginosa; 96 hours after injection, Glu-Trp dose 100 μg/kg (alone or + Gentamycin 1 MED)): 38.9%
- Percentage Survivors (Pseudomonas aeruginosa; 96 hours after injection, Glu-Trp dose 1000 μg/kg (alone or + Gentamycin 1 MED)): 44.4* %
- Survival (Pseudomonas aeruginosa; alone or with Gentamycin): significantly increased the percentage of mice surviving a lethal challenge of Pseudomonas
